The target of one experiment is 5-HT1E (Homo sapiens, UniProt P28566). As to the kind of experiment: NIMH PDSP radioligand competition binding, 5-HT1E. A general note: Displacement assays read how much labelled ligand stays bound in the presence of the test substance.
For experiment [1], the target named is serotonin transporter (SERT) (Homo sapiens, UniProt P31645). Description: NIMH PDSP radioligand competition binding, SERT.
In a further experiment the target is T1, α1A (Homo sapiens, UniProt P35348).
T1 sequence (P35348 1-466): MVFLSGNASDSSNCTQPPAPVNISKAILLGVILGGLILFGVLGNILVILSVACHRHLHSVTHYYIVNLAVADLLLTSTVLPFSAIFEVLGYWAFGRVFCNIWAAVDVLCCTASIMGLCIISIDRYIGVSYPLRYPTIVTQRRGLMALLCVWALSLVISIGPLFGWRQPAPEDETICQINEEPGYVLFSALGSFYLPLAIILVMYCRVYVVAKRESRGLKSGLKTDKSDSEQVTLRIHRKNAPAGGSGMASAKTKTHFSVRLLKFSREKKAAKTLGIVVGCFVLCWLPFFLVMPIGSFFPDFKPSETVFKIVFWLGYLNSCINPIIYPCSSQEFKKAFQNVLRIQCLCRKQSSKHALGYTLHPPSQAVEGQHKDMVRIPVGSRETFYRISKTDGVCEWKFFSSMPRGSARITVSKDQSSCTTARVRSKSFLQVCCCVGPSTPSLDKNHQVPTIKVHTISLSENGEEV
Description: NIMH PDSP radioligand competition binding, α1A.

The next experiment addresses T2, α2B (Homo sapiens, UniProt P18089).
T2 sequence (P18089 1-450): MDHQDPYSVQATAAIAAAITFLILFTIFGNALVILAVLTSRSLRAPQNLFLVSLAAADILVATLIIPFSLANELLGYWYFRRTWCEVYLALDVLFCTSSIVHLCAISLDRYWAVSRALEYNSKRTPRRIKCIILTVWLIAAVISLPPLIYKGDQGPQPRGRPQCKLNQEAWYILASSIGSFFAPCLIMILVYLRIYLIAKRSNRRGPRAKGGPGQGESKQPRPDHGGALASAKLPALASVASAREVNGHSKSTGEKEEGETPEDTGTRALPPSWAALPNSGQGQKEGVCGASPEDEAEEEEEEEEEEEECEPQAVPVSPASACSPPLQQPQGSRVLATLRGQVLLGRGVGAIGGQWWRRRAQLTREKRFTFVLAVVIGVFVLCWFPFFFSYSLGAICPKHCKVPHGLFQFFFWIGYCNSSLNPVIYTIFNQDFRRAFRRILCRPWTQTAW
As to the kind of experiment: NIMH PDSP radioligand competition binding, α2B.

A further experiment concerns the target T3, α2C (Homo sapiens, UniProt P18825).
T3 sequence (P18825 1-462): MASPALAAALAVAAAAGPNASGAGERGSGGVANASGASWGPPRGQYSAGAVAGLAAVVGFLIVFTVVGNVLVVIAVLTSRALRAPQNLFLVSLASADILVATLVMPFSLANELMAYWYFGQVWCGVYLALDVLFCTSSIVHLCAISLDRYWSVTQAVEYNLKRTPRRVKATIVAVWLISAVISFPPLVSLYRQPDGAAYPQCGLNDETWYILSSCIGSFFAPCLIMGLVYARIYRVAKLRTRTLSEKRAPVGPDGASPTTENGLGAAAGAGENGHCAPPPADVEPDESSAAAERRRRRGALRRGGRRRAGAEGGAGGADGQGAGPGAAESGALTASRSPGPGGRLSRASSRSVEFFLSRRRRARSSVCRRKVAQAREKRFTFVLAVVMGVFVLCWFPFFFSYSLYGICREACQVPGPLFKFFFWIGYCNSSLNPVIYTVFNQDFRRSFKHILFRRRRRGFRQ
As to the kind of experiment: NIMH PDSP radioligand competition binding, α2C.

Another experiment addresses D1 (Homo sapiens, UniProt P21728). As to the kind of experiment: NIMH PDSP radioligand competition binding, D1. The note with it: Binding Affinity (Ki, nM), [3H]SCH23390, cloned human receptor.
Another experiment concerns the target D2 (Homo sapiens, UniProt P14416). Description: NIMH PDSP radioligand competition binding, D2.
In another experiment the target is D3 (Homo sapiens, UniProt P35462). As to the kind of experiment: NIMH PDSP radioligand competition binding, D3.
The target of another experiment is μ-opioid receptor (MOR) (Homo sapiens, UniProt P35372). Description: NIMH PDSP radioligand competition binding, MOR.
The target of a further experiment is δ-opioid receptor (DOR) (Homo sapiens, UniProt P41143). As to the kind of experiment: NIMH PDSP radioligand competition binding, DOR. The following applies: Binding Affinity (Ki, nM), DOR; [3H]DADLE; cloned human receptor.
For experiment [2], the target named is peripheral benzodiazepine receptor (PBR) (Rattus norvegicus, UniProt P16257). Description: NIMH PDSP radioligand competition binding, PBR. The following applies: Binding Affinity (Ki, nM), PBR; [3H]PK11195; rat kidney, natively expressed.
A further experiment deals with H3 (Cavia porcellus, UniProt Q9JI35). Description: NIMH PDSP radioligand competition binding, H3. The arrangement: species or system Guinea pig.
The next experiment has as its target σ1 (Rattus norvegicus, UniProt Q9R0C9). As to the kind of experiment: NIMH PDSP radioligand competition binding, σ1.
Another experiment has as its target T4, σ2 (Rattus norvegicus, UniProt Q5U3Y7).
T4 sequence (Q5U3Y7 1-176): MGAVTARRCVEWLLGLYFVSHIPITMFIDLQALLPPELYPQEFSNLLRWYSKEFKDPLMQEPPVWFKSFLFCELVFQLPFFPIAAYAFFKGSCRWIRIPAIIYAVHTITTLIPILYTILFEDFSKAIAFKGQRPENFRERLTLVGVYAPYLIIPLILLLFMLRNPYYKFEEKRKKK
As to the kind of experiment: NIMH PDSP radioligand competition binding, σ2.

The test system of experiment [3] is head twitch response (5-HT2A receptor-mediated). As to the kind of experiment: Head twitch response. It counts as in vivo, C57BL/6J mice.

A word on the pKi: it is the negative decadic logarithm of the Ki, by convention in mol/L. Low values mean a large Ki, high ones a small Ki. A word on the Ki: it is a dissociation constant, usually derived from enzyme kinetics or from competition with a known ligand. A lower Ki goes with tighter binding.

pKi: −log10 of the molar value. Where only a bound is given, the exact number is not on record here.

For the compound `C=CCN(CC=C)CCc1c[nH]c2c(CC)cccc12` [7-Et-DALT, 7-ethyl-N,N-diallyltryptamine], the pKi at 5-HT1E is less than 5.00; in experiment [1] it was 6.10; at α1A, less than 5.00; at α2B, 6.31; on α2C, 6.17; on D2, less than 5.00. The negative-log Ki (pKi) on D3 is 5.97; at μ-opioid receptor (MOR), 5.57; at H3, less than 5.00; on σ1, 7.66; on σ2, 6.87. Further, the Ki (at D1; at δ-opioid receptor (DOR); in [2]) was more than 10000 nM each time. The “σ1 affinity, fold higher than the parent compound” value at σ1 (relative to DALT) was approximately 5 fold. In addition, in experiment [3] (15 mg/kg IP, duration 30 min), the “HTR Counts (mean ± SEM)” value was 9.8 ± 1.8. For the same compound, the “activity in the HTR assay (in words)” value in experiment [3] (C57BL/6J mice, IP, within the dose range tested) is listed as “did not induce the HTR”.
